From US8741894B2, “Arylsulfonamide CCR3 antagonists” (Axikin Pharmaceuticals, Inc., priority 2010, dated 2014) come the findings set out here.

The target in one data set is T1, CCR3 receptor (UniProt P51677).
T1 sequence (P51677 1-355): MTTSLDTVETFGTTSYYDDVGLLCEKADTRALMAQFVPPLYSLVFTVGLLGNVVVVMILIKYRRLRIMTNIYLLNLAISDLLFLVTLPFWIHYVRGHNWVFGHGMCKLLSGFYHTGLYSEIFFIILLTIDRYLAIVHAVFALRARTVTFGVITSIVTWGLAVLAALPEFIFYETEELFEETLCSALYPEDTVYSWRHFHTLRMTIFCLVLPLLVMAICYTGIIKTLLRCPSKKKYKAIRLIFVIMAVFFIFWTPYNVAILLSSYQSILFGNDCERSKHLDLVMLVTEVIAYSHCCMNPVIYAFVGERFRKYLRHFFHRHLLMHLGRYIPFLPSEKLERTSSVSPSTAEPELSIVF
Briefly: CCR3 Receptor Binding Assay ([125I]-labeled human eotaxin/CCL11 displacement on cells). As to conditions: 0.1 nM [125I]-labeled human eotaxin/CCL11, 60 min at room temperature. How it is done:
Cells were washed once with PBS and resuspended in a binding buffer (25 mM HEPES pH 7.6, 5 mM MgCl2, 1 mM CaCl2, 0.5% BSA, 0.1% NaN3). […] of cell suspension (2×10^5 cells/well) and 0.1 nM [^125I]-labeled human eotaxin/CCL11 (2000 Ci/mmol specific activity) were mixed in a 96-well U-bottom polypropylene plate, and incubated for 60 min at room temperature for the binding reaction. The cell suspension was then transferred to a filtration plate (#MAFB, Millipore), and washed 3 times with the binding buffer containing 0.5 M NaCl, scintillant added, and the radioactivity was counted on a TopCount (Packard). For the determination of non-specific binding, the cell suspension and [^125I]-labeled human eotaxin/CCL11 were incubated in the presence of 500 nM of unlabeled human eotaxin/CCL11. See, lino et al., “Molecular cloning and functional characterization of cynomolgus monkey (Macaca fascicularis) CC chemokine receptor, CCR3,” Cytokine 2002, 19, 276-286.
The biological results are summarized in Table 1, wherein A represents a value no greater than 50 nM, and B represents a value greater than 50 nM but no greater than 500 nM, C represents a value greater than 500 nM but no greater than 5 μM; and D represents a value greater than 5 μM.

Another data set deals with T2, hERG channel (Homo sapiens, UniProt Q12809).
T2 construct: purchased Perkin Elmer RBHERGM400UA; host or cells: HEK-293 cells transfected with hERG (membrane preparation)
As to the kind of experiment: hERG Receptor Binding Assay (125I-BeKm-1, membranes from HEK-293 cells containing transfected hERG channels). Particulars: 1 hr at room temperature; for Ki at 1 h: human, pH 7.2, probe 125I-BeKm-1 (0.1 nM final); for Ki: 125I-BeKm-1 0.1 nM final. How it is done: Medium throughput screening of compounds for interaction with the human Ether-a-go-go related gene (hERG) was performed by modification of equilibrium dissociation assays using 125I-labelled peptide BeKm-1. BeKm-1, a scorpion toxin from the Central Asian scorpion Buthus eupeus, selectively blocks the hERG channel. Angelo, K., et al., 2003, Pflugers Arch.-Eur. J. Physiol., 447: 55-63; Chiu, P J S, et al., J. Pharmacol. Sci., 2004, 95: 311-319. Isolated membrane preparations from HEK-293 cells containing transfected hERG channels (hERG K+ Channel Membrane Target Systems™; Cat #, RBHERGM400UA) (Perkin Elmer, Boston, Mass.) were suspended in assay buffer A at a final concentration of 1:150 v/v. Compounds for screening, and non-radiolabelled BeKm-1, as well as 125I-BeKm-1 radioligand (Perkin Elmer; Cat #, NEX-412; Specific Activity 2,200 Ci/mmol), were also reconstituted in Buffer A. Assay components were incubated in 96-well, round-bottom polypropylene plates in the following ratio:
25 μl compound at appropriate concentrations
25 μl radiolabelled BeKm-1 at 0.8 nM (final concentration of 0.1 nM)
150 μl membrane preparation
The assay was incubated with shaking for 1 hr at room temperature. Subsequently, the well contents were transferred to 96-well filtration plates (GF/C multiwell plates (MultiScreen™ HTS; Millipore, 290 Concord Road, Billerica, Mass. 01821 USA; Cat# MSFBN6B-XX pre-soaked in 0.3% polyethyleneimine; Acros Organics, NJ; Cat#178571000). Unbound radioactivity was removed and the membranes washed 4 times with ice-cold Buffer B, under vacuum. Plates were air-dried and bound radioactivity counted on a Packard Top-Count NXT™ microplate scintillation and luminescence counter (Packard Instrument Co., Downers Grove, Ill.). Equilibrium dissociation was analyzed and IC50 and/or Ki values were calculated using GraphPad Prism 4™ software (GraphPad Software, San Diego, Calif.).
Assay Buffer A: ([…] (MP Biomedicals, LLC; 29525 Fountain Parkway, Solon Ohio, 441389; Cat #1688449) in water, pH 7.2 with 1M Tris (Fisher Chemicals, Fair Lawn, N.J. 07410; Cat #, BP-1757-500); 100 μM KCl (Fisher Chemicals, Cat #, BP-366-500); 0.1% BSA (Sigma Aldrich, 3050 Spruce Street, St. Louis, Mo. 63103; Cat #, A3059). Assay Buffer B: 20 mM Tris HCl, pH 7.3; 150 mM NaCl (Fisher Chemicals; Cat #, S78449).
The hERG binding assay results are summarized in Table 2, wherein A represents no measured activity (i.e., a value greater than 100 μM), and B represents a value greater than 10 μM but less than 100 μM and C represents a value less than 10 μM.
Background: Block of hERG is tested as a sign of cardiac risk.

The Ki is the dissociation constant of the complex between target and ligand, obtained from inhibition or displacement. Read a low Ki as a stronger hold on the target.

T2 sequence (Q12809 whole entry): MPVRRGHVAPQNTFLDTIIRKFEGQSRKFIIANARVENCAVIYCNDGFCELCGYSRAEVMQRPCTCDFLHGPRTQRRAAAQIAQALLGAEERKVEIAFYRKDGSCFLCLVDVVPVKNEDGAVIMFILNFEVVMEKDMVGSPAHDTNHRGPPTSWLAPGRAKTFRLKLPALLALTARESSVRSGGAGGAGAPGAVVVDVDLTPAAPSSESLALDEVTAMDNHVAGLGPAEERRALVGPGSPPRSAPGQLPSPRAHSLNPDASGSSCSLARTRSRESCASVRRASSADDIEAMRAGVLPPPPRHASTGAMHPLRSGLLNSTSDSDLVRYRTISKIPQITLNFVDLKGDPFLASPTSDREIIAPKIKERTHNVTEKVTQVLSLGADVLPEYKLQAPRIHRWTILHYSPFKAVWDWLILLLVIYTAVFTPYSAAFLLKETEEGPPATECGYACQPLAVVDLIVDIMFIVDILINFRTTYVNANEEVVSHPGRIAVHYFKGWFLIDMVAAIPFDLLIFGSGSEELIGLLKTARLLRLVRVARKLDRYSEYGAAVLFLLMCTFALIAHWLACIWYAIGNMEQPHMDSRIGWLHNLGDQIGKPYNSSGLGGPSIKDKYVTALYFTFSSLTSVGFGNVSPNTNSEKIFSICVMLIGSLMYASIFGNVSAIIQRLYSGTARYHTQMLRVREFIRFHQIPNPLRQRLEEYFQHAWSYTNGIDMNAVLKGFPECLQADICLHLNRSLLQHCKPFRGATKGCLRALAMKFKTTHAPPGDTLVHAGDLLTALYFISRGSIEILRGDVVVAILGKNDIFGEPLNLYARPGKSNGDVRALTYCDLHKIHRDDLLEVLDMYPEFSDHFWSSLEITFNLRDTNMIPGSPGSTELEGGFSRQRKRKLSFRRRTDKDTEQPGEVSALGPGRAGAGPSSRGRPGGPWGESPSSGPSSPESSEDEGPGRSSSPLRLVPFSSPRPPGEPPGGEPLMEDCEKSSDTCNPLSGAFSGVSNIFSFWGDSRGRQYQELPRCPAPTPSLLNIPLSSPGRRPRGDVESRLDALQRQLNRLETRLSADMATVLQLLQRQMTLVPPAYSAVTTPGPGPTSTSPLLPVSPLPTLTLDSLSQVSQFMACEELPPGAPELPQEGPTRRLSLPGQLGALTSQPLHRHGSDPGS

In turn, `CS(=O)(=O)N1CCC(NS(=O)(=O)c2cc(C#N)ccc2Oc2cc(Cl)cc(Cl)c2)CC1` [Compound 33] yielded a Ki on CCR3 receptor of 50 to 500 nM. For the same compound, at hERG channel, the inhibition constant Ki at 1 h was above 100000 nM. The like results for `CC(C)NC(=S)N1CCC(NS(=O)(=O)c2cc(C#N)ccc2Oc2cc(Cl)cc(Cl)c2)CC1` [Compound 36] were, in that order, 50 to 500 nM and 10000 to 100000 nM.

Consider `Cc1ccc(S(=O)(=O)N2CCC(NS(=O)(=O)c3cc(C#N)ccc3Oc3cc(Cl)cc(Cl)c3)CC2)cc1` [Compound 30, 5-cyano-2-(3,5-dichlorophenoxy)-N-(1-tosylpiperidin-4-yl)benzenesulfonamide], for which the inhibition constant (Ki) was 50 to 500 nM on CCR3 receptor and above 100000 nM on hERG channel. In turn, `CC(C)(C)OC(=O)N1CCC(NS(=O)(=O)c2cc(C#N)ccc2Oc2cc(Cl)cc(Cl)c2)CC1` [Compound 2] gave an inhibition constant Ki on CCR3 receptor above 5000 nM. Further, at hERG channel, the inhibition constant (Ki) at 1 h was above 100000 nM. The compound `CC(=O)N1CCC(NS(=O)(=O)c2cc(C#N)ccc2Oc2cc(Cl)cc(Cl)c2)CC1` [Compound 38] returned a Ki on CCR3 receptor of 50 to 500 nM. Besides, at hERG channel, the inhibitory constant (Ki) at 1 h was above 100000 nM. On to `N#Cc1ccc(Oc2cc(Cl)cc(Cl)c2)c(S(=O)(=O)N2CCC(NS(=O)(=O)c3cccc(F)c3)CC2)c1` [Compound 25, N-(1-(5-cyano-2-(3,5-dichlorophenoxy)phenylsulfonyl)piperidin-4-yl)-3-fluorobenzenesulfonamide], for which the values for the inhibitory constant (Ki) at CCR3 receptor and on hERG channel were 50 to 500 nM and above 100000 nM, respectively. In the case of `N#Cc1ccc(Oc2cc(Cl)cc(Cl)c2)c(S(=O)(=O)N2CCC(NC(=O)Nc3cccc(F)c3)CC2)c1` [Compound 52], on CCR3 receptor, the inhibitory constant (Ki) fell in the range of 500 to 5000 nM. The same compound displayed an inhibition constant (Ki) at 1 h at hERG channel above 100000 nM. Consider `N#Cc1ccc(Oc2cc(Cl)cc(Cl)c2)c(S(=O)(=O)N2CCC(NC(=O)CCCCl)CC2)c1` [Compound 8, 4-chloro-N-(1-(5-cyano-2-(3,5-dichlorophenoxy)phenylsulfonyl)piperidin-4-yl)butanamide], for which the Ki on hERG channel is above 100000 nM.
